The values that follow come from patent publication EP4778929A1, “NOVEL TYPE I TOPOISOMERASE INHIBITOR, AND PREPARATION METHOD THEREFOR AND USE THEREOF” (priority 2023, dated 2025).

One data set deals with HCT116 cells. Description: Inhibition of cell proliferation by CTG (CellTiter-Glo) luminescence assay. It counts as cell-based. Particulars: Homo sapiens, HCT-116, 72 h, read-out: HCT116, IC50. The procedure, abridged: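 Nine-point 1:3 dilutions applied to HCT116 cells (2 000/well, McCoy's 5a + 10 % FBS) for 72 h at 37 °C, final DMSO 0.25 %. Viability read by CellTiter-Glo luminescence; % inhibition versus DMSO controls fitted to four-parameter logistic for IC50.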
A general note: ATP-based viability assays read luminescence as a measure of living cells.

Data set [1] is described as follows: Pharmacokinetic study in mice, plasma concentrations by LC-MS/MS. Particulars: mouse, in vivo.

As a reminder, the IC50 is the point on the concentration scale where inhibition reaches its midpoint. Usually AUC(0-t) stands for exposure summed from dosing to a finite time, without extrapolation to infinity. A low value points to less exposure. Broadly, the Cmax is the highest concentration seen after dosing. As a reminder, the clearance is a measure of how efficiently the substance is removed, as volume per time. Low values mean inefficient removal, high ones efficient removal. The half-life is the time needed for the level to fall by half in the phase considered. A higher half-life goes with slow loss. A word on the Tmax: it is the time at which the peak concentration occurs. By bioavailability is commonly meant the share of a dose that reaches the circulation, judged against a reference dose that is usually intravenous. As for `CC[C@@]1(O)C(=O)OCc2c1cc1n(c2=O)Cc2c-1c(=O)c1cc(F)cc(C)c1n2C` [Example 2, (S)-4-ethyl-8-fluoro-4-hydroxy-10,11-dimethyl-1,12-dihydro-14H-pyrano[3,4:6,7]indolizino[2,1-b]quinoline-3,6,14(4H,11H)-trione], the IC50 in the data set with HCT116 cells was less than 20 nM. In data set [1] (iv, 2 mg/kg), this compound showed an AUC(0-t) at 24 h of 323 ng·h/mL, a Cmax of 604 ng/mL, a clearance of 110 mL/min/kg and a half-life of 69.6 min. For the same compound, in data set [1] (po, 20 mg/kg), the AUC(0-t) at 24 h turned out to be 911 ng·h/mL, the concentration peaked (Cmax) at 956 ng/mL, the Tmax was 25.2 min and the bioavailability turned out to be 28.5%. The half-life in data set [1] (po, 20 mg/kg) was 135 min.

Consider `CC[C@@]1(O)C(=O)OCc2c1cc1n(c2=O)Cc2c-1c(=O)c1cc(F)ccc1n2CCN(C)C1CCCC1` [Example 117], for which, in the data set with HCT116 cells, the IC50 was less than 20 nM. In data set [1] (iv, 1 mg/kg), this compound had an AUC(0-t) at 24 h of 38.7 ng·h/mL, a Cmax of 107 ng/mL, a clearance of 439 mL/min/kg and a half-life of 14.1 min.
